Results reported in paper PMC4745983 (Frontiers in Cell and Developmental Biology, 2016).
Marks after values point to notes of the source that are not given here.

How the values were obtained:
E. coli O157:H7 = details: indicator strain E. coli O157:H7; ref Bikker et al., [2006]; cited from earlier work
Source text: (§1) Table 1 List of selected peptides with anti-Gram-negative bacteria activity. | column: MIC(μM)

E. coli UB1005 = details: indicator strain E. coli UB1005; ref Hilpert et al., [2005]; cited from earlier work
Source text: as §1

E. coli CECT101 = format: cell-based, Escherichia coli; details: growth curves, 18 h; experiment repeated three times
Procedure: (§2) L. lactis strains were cultured in M17 broth supplemented with 0.5% (w/v) glucose (GM17) for genetic manipulation or in minimal expression medium (MEM) for protein expression at 30°C (Rink et al., [2005]). E. coli CECT101 was grown in Luria-Bertani broth aerated by shaking (200 rpm) at 37°C.
(§3) The indicator strains were first cultured until OD (600 nm) reached 0.5. When testing the MIC value, the culture was diluted 1000 times with the appropriate medium. All the tests were performed with a temperature controlled plate reader (Tecan infinite F200, Tecan Group AG) in a 96-well plate (Greiner Bio-one). The peptides were first diluted in gradient with medium and then mixed with diluted indicator strains. The final concentration of the peptides ranged from 0.00625 to 0.8 μM against L. lactis MG1363 and from 0.25 to 32 μM against E. coli CECT101 in 100 μl volume. The plate was incubated at 30°C or 37°C for 18 h depending on the indicator strain being L. lactis or E. coli, respectively. OD (600 nm) was checked every 30 min. For E. coli, 2 min of shaking was performed before every check. When testing the activity of nisin against E. coli in the presence of EDTA, an EDTA solution was prepared and added to a final concentration of 50, 110, or 250 μM. The minimal concentration of peptide causing no observed growth of indicator strains was considered as the MIC value.

L. lactis MG1363 = format: cell-based, Lactococcus lactis; details: from MIC values
Procedure: as §2, §3

E. coli CIP = assay: Growth curve inhibition of E. coli CIP; format: cell-based, Escherichia coli; details: growth curves of 8μM nisin and 8μM GNT16; Luria-Bertani broth, 37°C
[1] = tested on: Enterobacter aerogenes CECT684; assay: Growth curve inhibition of Enterobacter aerogenes CECT684; format: cell-based; details: growth curves of 8μM nisin and 8μM GNT16; GM17, 37°C
E. coli ATCC 700928 = details: indicator strain E. coli ATCC 700928; ref Sainath Rao et al., [2013]; cited from earlier work
Source text: as §1

Molecule: GKPRPYSPRPTSHPRPIRV [Drosocin]
- MIC (E. coli O157:H7): 25^c μM

Molecule: RIWVIWRR-NH2 [Bac8c]
- MIC (E. coli UB1005): 1.7^e μM

Molecule: C=C1NC(=O)[C@H]([C@@H](C)CC)NC(=O)[C@H](NC(=O)/C(=C/C)NC(=O)[C@@H](N)[C@@H](C)CC)CSC[C@@H](C(=O)N[C@H]2C(=O)N3CCC[C@H]3C(=O)NCC(=O)N[C@H](C(=O)N[C@@H](CCCCN)C(=O)N[C@H]3C(=O)NCC(=O)N[C@@H](C)C(=O)N[C@@H](CC(C)C)C(=O)N[C@@H](CCSC)C(=O)NCC(=O)N[C@H](C(=O)N[C@@H](CC(N)=O)C(=O)N[C@@H](CCSC)C(=O)N[C@@H](CCCCN)C(=O)N[C@H]4C(=O)N[C@@H](C)C(=O)N[C@H]5C(=O)N[C@@H](CS[C@H]4C)C(=O)N[C@@H](Cc4c[nH]cn4)C(=O)N[C@H](C(=O)N[C@@H](CO)C(=O)N[C@H](C(=O)N[C@@H](Cc4c[nH]cn4)C(=O)N[C@H](C(=O)NC(=C)C(=O)N[C@@H](CCCCN)C(=O)N4CCC[C@H]4C(=O)N[C@@H](CCCNC(=N)N)C(=O)N4CCC[C@H]4C(=O)N4CCC[C@H]4C(=O)N[C@@H](Cc4c[nH]cn4)C(=O)N4CCC[C@H]4C(=O)N[C@@H](CCCNC(=N)N)C(=O)N[C@@H](CC(C)C)C(=O)O)C(C)C)[C@@H](C)CC)CS[C@H]5C)CS[C@H]3C)CS[C@H]2C)NC(=O)[C@H](CC(C)C)NC1=O [GNT16]
- Concentration that fully inhibits growth of E. coli CECT101 within 18 h (Figure 3) (E. coli CECT101): 8 µM
- Decrease of activity against L. lactis MG1363 relative to nisin (L. lactis MG1363): 32 times
- Inhibitory activity against E. coli CIP compared with nisin (E. coli CIP): equal or slightly better inhibitory activity than nisin
- Inhibitory activity against Enterobacter aerogenes CECT684 compared with nisin [1]: equal or slightly better inhibitory activity than nisin

Molecule: RLLFRKIRRLKR [EC5]
- MIC (E. coli ATCC 700928): 4.8^d μM
